Marks after values point to notes of the source that are not given here.
How the values were obtained:
ischemic hindlimbs = experiment: hindlimb ischemia model, laser Doppler perfusion imaging of limb blood perfusion; assay type: in vivo, C57BL/6 wild-type mice
Experimental: (§1) 6-week-old female C57BL/6 wild-type mice were anesthetized by an intraperitoneal injection of a mixture of zoletil (6 mg/kg) and xylazine (3 mg/kg). Hair was removed from the hindquarter with a depilating cream. To establish hindlimb ischemia, unilateral external iliac and femoral arteries and veins were ligated, cut, and excised. After surgery, the mice were randomly assigned to several experimental groups (n=6, each group) and treated as follows. In the blank control group, the mice were treated with 50 μl of blank alginate gel, whereas in the bolus control group, the mice received the bolus formulation containing 29-mer. In the PEDF peptide/alginate gel treatment groups, the mice received 50 μl of the sustained-release formulation, which comprised either 29-mer, 24-mer, or 20-mer. Additionally, in a PEDF 18-mer control group, mice were treated with a sustained-release formulation containing a PEDF 18-mer peptide. Treatments were applied by way of a single intramuscular injection to the gracilis muscle immediately after femoral artery and vein excision operation. The incision was closed after the wound was irrigated with sterile saline.
A laser Doppler perfusion imaging (LDPI) analyzer (Moor Instruments, USA) was used to quantify hindlimb blood perfusion before surgery (pre OP), immediately after surgery (post OP), and over time after surgery. To minimize vasoconstriction by anesthetic heat loss, animals were kept on a heating plate at 37° C. for 5 min before measurement. Representative LDPI images illustrating the blood perfusion of ischemic hindlimbs over a time period of 4 weeks were provided in FIG. 2 in which dark blue color represents low blood flow. Blood perfusion is expressed as LDPI index representing the ratio of operated (ischemic) versus non-operated (non-ischemic) limb blood flow of the same mouse, and the results were summarized in FIG. 3 and Table 1 (n 6).

tibialis anterior muscle = experiment: hindlimb ischemia model, tibialis anterior muscle necrosis/fibrosis and centrally nucleated fibers; assay type: in vivo, C57BL/6 wild-type mice; conditions: two weeks after surgery, sustained-release formulation (Bolus: bolus 29-mer)
Experimental: The gracilis, adductor magnus, soleus, and tibialis muscles were fixed in 4% paraformaldehyde, dehydrated with graded ethanol series, and paraffinized. Fixed samples were de-paraffinized in xylene and rehydrated in a graded series of ethanol. Tissues were sliced into 5-μm sections. General histology was performed using H&E dye.
To ascertain the number of centrally nucleated muscle fibers, sections were stained with H&E and then photographed as described above. At least 100 stained fibers were randomly chosen from each photo. Muscle fibers were judged centrally nucleated if one or more nuclei were not located at the periphery of the fiber. The data were expressed as a % of the total number of muscle fibers counted. Results were evaluated from 6 sections per muscle section, and 10 mice at each group.
as §1
In most hindlimb ischemia models, tissue necrosis generally occurs in the muscles below the knee. For example, tibialis anterior muscle, which is distant to the gracilis muscle where the treatment was administered, often undergoes extensive necrosis with regeneration after femoral artery excision. The intensity of Masson's trichrome blue color staining depended on the content of collagen fibers in the investigated tissue, and fibrosis is the result of necrosis. […] Results from representative samples are illustrated in FIGS. 4A and 4B.
Statistical analyses regarding injured area (necrotic area+fibrotic area) and numbers of centrally nucleated fibers were also performed at two weeks after the surgery, and the results were summarized in Table 2. The injured area is expressed as the percent of total stained area (%), and the centrally nucleated fibers is expressed as the total number of muscle fibers counted (%).

[1] = tested on: adductor magnus muscle arterioles; experiment: hindlimb ischemia model, arteriole density (α-SMA) in adductor magnus muscle; assay type: in vivo, C57BL/6 wild-type mice; conditions: two weeks after surgery, sustained-release formulation (Bolus: bolus 29-mer)
Experimental: The small artery densities (α-SMA positive cells surrounding the whole circumference of the vessel) were measured and images were taken from 10 randomly-selected areas of adductor magnus muscle (200× magnification) in each sample, and blinded quantification was performed in triplicate by manually counting within each section; values from five sections were then averaged and expressed as arteriole density per mm^2.
as §1
To investigate the arteriogenic effect of the present sustained-release formulation, adductor magnus muscles (located at the same level as femoral artery excision and in which arteriogenesis responsible for establishing collateral circulation is expected to be found) were harvested from animals in each experimental condition, two weeks after the surgery. Arterioles in muscle cross sections were identified by immunohistological staining for vascular smooth muscle cells (α-SMA; brown), and nuclei were labeled with hematoxylin; representative photographs were provided in FIG. 5. Quantitative analysis was also performed and the results were summarized in Table 3, and the data were expressed as α-SMA-positive arterioles per mm^2 in the peri-injury region.

aortic ring explants [2] = experiment: rat aortic ring sprouting assay (ex vivo neovessel sprouting); assay type: cell-based; conditions: aortic rings cultured with PEDF peptide, in words
aortic ring explants [3] = experiment: as above; assay type: cell-based; conditions: day 4, 50 ng/ml PEDF peptide, 50 ng/ml VEGF-A, 20 ng/ml FGF-2, MCDB131, 1% FBS, Matrigel
Experimental: To further confirm the neovessel development promoted by PEDF peptides, rat aortic ring sprouting assay was performed. Thoracic aortas were removed from euthanized rats and gently stripped of peri-aortic fibroadipose tissue. Aortas were sectioned into about 2-mm length rings, which were then embedded in a growth factor-reduced Matrigel. Gels containing the aortic rings were polymerized in 12-well plates incubated at 37° C. for 30 minutes. 1 ml of MCDB131 medium supplemented with 100 units/ml penicillin and […] streptomycin, 1% FBS, and a supplemental agent (50 ng/ml VEGF-A, 20 ng/ml FGF-2, or 50 ng/ml 29-mer, 24-mer, 20-mer, Mo 29-mer, Mo 20-mer, 25-mer, or 18-mer) were added to the Matrigel-containing explants. The cultures were propagated at 37° C. in a humidified incubator for up to 4 days, with media changes every other day. Neovessel sprouting was assessed until day 4 using an inverted microscope platform (Leica) with bright-field optics; representative photographs were provided in FIG. 6. Quantification of neovessel sprouting was assessed using Image-Pro Plus 6.0 software (Dendrites program). The experiment was repeated in triplicate.

tendon stem cells (TSCs) = experiment: TSCs proliferation assay (BrdU labeling) in vitro; assay type: cell-based, New Zealand White rabbits; conditions: TSCs passage 4; 50 nM peptide, 5% FBS, 24 hours; BrdU pulse-labeling
Experimental: New Zealand White rabbits (6-8 months old, 3.0-4.0 kg) were used in this study. Achilles tendons were removed from the rabbits by cutting through their bony attachments. The tendon sheath was stripped away and the core portion of the tendons was minced into small fragments. Each 100 mg of fragment was then digested in a solution containing 3 mg/mL of type I collagenase and 4 mg/mL of dispase in 1 ml Dulbecco's Modified Eagle Medium (DMEM-high glucose) at 37° C. for 2 hours. The resultant cell suspension was centrifuged at 1,000 rpm for 15 minutes to obtain a cell pellet which was then resuspended in a growth medium consisting of DMEM supplemented with 10% heat inactivated fetal bovine serum (FBS), 100 μM 2-mercaptoethanol, and 100 U/ml penicillin and 100 μg/ml streptomycin. For passage, near-confluent cells were harvested with 0.25% trypsin and then 1×10^5 subcultured cells were further cultured in medium.
The TSCs at passage 4 were seeded at gelatin-coated slide in a 6-well plate at a density of 2×10^5 cells per well and cultured in growth medium (DMEM+10% FBS) for 24 hours before being replaced by a basal growth medium with 5% FBS only (control group) or with 5% FBS plus an additional 50 nM of PEDF-derived peptide (i.e., 29-mer, 24-mer, 20-mer, 18-mer, Mo 29-mer, or Mo 20-mer) for 24 hours. For BrdU labeling assay, BrdU (final concentration, 10 μM) was added to the culture for 4 hours. After fixing with 4% paraformaldehyde, cells were exposed to cold methanol for 2 minutes, and then treated with 1 N HCl at RT for 1 hour before performing immunofluorescence. The phenotype of passage 4 TSC was determined by immunocytochemistry of nucleostemin and type I collagen. Almost all of expanded TSCs were nucleostemin and type I collagen-double positive cells.
It has been reported that during the tendon healing process, tendon stem cells (TSCs) would proliferate and differentiate into tenocytes. To investigate whether present PEDF peptides would induce the proliferation of TSCs in vitro, tendons stem cells were isolated and cultured as described in the “Materials and Methods” section. The purity of TSCs was confirmed by a TSC marker, nucleostemin, as well as the expression of type I collagen by TSCs; together, these analyses indicated a TSC purity of near 100% (data not shown). The proliferation of TSCs was confirmed by BrdU pulse-labeling for 2 hours. Quantitative analysis of the level of BrdU-positive cells was performed as described above, and the results were summarized in Table 8.

In the case of “EQRTESIIHRALYYDLIS [18-mer, control PEDF peptide without the SLGA residues, reference compound]”, the “Ischemic/Non-ischemic Perfusion Ratio (%) 7 days” value (ischemic hindlimbs; 7 days after surgery, 50 μl sustained-release alginate gel formulation, 10 μM peptide (Bolus: bolus formulation of 29-mer), single intramuscular injection to gracilis muscle) is reported as 23.8 ± 4.5%, the “Ischemic/Non-ischemic Perfusion Ratio (%) 14 days” value (ischemic hindlimbs; 14 days after surgery, sustained-release formulation (Bolus: bolus 29-mer), single intramuscular injection) is reported as 30.3 ± 0.94% and the “Ischemic/Non-ischemic Perfusion Ratio (%) 21 days” value (ischemic hindlimbs; 21 days after surgery, sustained-release formulation (Bolus: bolus 29-mer), single intramuscular injection) is reported as 46.8 ± 4.3%. For the same substance, the “Ischemic/Non-ischemic Perfusion Ratio (%) 28 days” value (ischemic hindlimbs; 28 days (four weeks) after surgery, sustained-release formulation (Bolus: bolus 29-mer), single intramuscular injection) was 52.8 ± 7.4%, the “Ischemic/Non-ischemic Perfusion Ratio (%) Pre OP” value (ischemic hindlimbs; before surgery (baseline), LDPI) was 104.5 ± 2.5% and the “Ischemic/Non-ischemic Perfusion Ratio (%) Post OP” value (ischemic hindlimbs; immediately after surgery, LDPI) was 7.5 ± 0.67%. For the same substance, the “blood perfusion as compared with blank control” value (ischemic hindlimbs; over 4 weeks after surgery, in words) was “did not exhibit improved blood perfusion”, the “Centrally nucleated fibers (%)” value (tibialis anterior muscle) was 20.5 ± 3.3% and the “Injured Area (%) (necrotic area + fibrotic area, percent of total stained area)” value (tibialis anterior muscle) was 78.5 ± 5.1%. The “Arteriole Density per mm^2 (α-SMA-positive arterioles)” value [1] was 4.0 ± 0.58 per mm^2 and the “neovessel phenotype by dual immunofluorescence (α-SMA / isolectin B4)” value (aortic ring explants [2]) was “barely detected”.
With “FGF2: well-known angiogenic factor used as positive control, 20 ng/ml [reference compound]” the “Neovessel Sprouting Fold” value (aortic ring explants [3]) was 3.5* fold of untreated aortic ring and the “Neovessel Sprouting Fold” value (aortic ring explants [3]; listed as FGF-2) was ~3.5 fold of untreated aortic ring.
With “SLGAEHRTESVIHRALYYDL [Mo 20-mer, synthetic peptide derived from mouse PEDF]” the “Neovessel Sprouting Fold” value (aortic ring explants [3]) was 6.4* fold of untreated aortic ring and the “BrdU Labeling Index (%)” value (tendon stem cells (TSCs)) was 31.8 ± 3.1 %.
“SLGAEHRTESVIHRALYYDLITNPDIHST [Mo 29-mer, synthetic peptide derived from mouse PEDF]” was tested, and the “Neovessel Sprouting Fold” value (aortic ring explants [3]) was 6.1* fold of untreated aortic ring and the “BrdU Labeling Index (%)” value (tendon stem cells (TSCs)) was 33.2 ± 6.6 %.

Reference: patent publication US9884012B2, “Use of PEDF-derived polypeptides for promoting muscle or tendon regeneration or arteriogenesis” (MacKay Memorial Hospital, priority 2012, dated 2018)
